Patent US20240124427A1, “HYDROXYHETEROCYCLOALKANE-CARBAMOYL DERIVATIVES” (Idorsia Pharmaceuticals Ltd, priority 2021, published 2024)

Target: human Gal-3 (hGal-3) (Homo sapiens (Human), UniProt P17931)
Assay: Competitive binding assay: biotinylated hGal-3 binding to microplate-adsorbed asialofetuin (ASF)
Conditions: Activity on hGal-3; mean values of several measurements; mixture of diastereomers measured where not separated
Protocol: The inhibitory activity of compounds is determined in competitive binding assays. This spectrophotometric assay measures the binding of biotinylated human Gal-3 (hGal-3) or human Gal-1 (hGal-1), respectively, to a microplate-adsorbed glycoprotein, asialofetuin (ASF) (Proc Natl Acad Sci USA. 2013 Mar 26;110(13):5052-7.). Alternatively, and preferably, a human Gal-1 version in which all six cysteines are substituted by serines may be used.
Briefly, compounds are serially diluted in DMSO (working dilutions).
Plates are incubated for 3 hours at 4° C., then washed with cold assay buffer (3×50 uL), incubated for 1 hour with 25 μL/well of a streptavidin-peroxidase solution (diluted in assay buffer to 80 ng/mL) at 4° C., followed by further washing steps with assay buffer (3×50 uL). Finally, 25 μL/well of ABTS substrate is added.
The calculated IC50 values may fluctuate depending on the daily assay performance. Fluctuations of this kind are known to those skilled in the art. IC50 values from several measurements are given as mean values.

Sequence of human Gal-3 (hGal-3) (P17931 whole entry): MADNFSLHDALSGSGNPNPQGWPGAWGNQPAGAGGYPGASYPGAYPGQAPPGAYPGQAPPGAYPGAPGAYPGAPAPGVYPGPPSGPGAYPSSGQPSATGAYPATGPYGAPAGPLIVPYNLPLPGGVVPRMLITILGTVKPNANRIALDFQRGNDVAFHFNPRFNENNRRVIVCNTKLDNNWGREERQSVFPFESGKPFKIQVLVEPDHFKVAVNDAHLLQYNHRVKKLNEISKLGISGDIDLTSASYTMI

SMILES | IC50 [nM]
CO[C@@H]1[C@@H](n2cc(-c3cc(F)c(F)c(F)c3)nn2)[C@@H](O)[C@@H](CO)O[C@H]1C(=O)N(c1cccc(Cl)c1)[C@H]1COC[C@@H]1O [Example 1, (2R,3R,4S,5R,6R)-N-(3-chlorophenyl)-5-hydroxy-6-(hydroxymethyl)-N-((3S,4R)-4-hydroxytetrahydrofuran-3-yl)-3-methoxy-4-(4-(3,4,5-trifluorophenyl)-1H-1,2,3-triazol-1-yl)tetrahydro-2H-pyran-2-carboxamide] | 102
CO[C@@H]1[C@@H](n2cc(-c3cc(F)c(F)c(F)c3)nn2)[C@@H](O)[C@@H](CO)O[C@H]1C(=O)N(c1cccc(Br)c1)[C@H]1COC[C@@H]1O [Example 2, (2R,3R,4S,5R,6R)-N-(3-bromophenyl)-5-hydroxy-6-(hydroxymethyl)-N-((3S,4R)-4-hydroxytetrahydrofuran-3-yl)-3-methoxy-4-(4-(3,4,5-trifluorophenyl)-1H-1,2,3-triazol-1-yl)tetrahydro-2H-pyran-2-carboxamide] | 80
CO[C@@H]1[C@@H](n2cc(-c3cc(F)c(F)c(F)c3)nn2)[C@@H](O)[C@@H](CO)O[C@H]1C(=O)N(c1cc(Cl)cc(C#N)c1)[C@H]1COC[C@@H]1O [Example 5, (2R,3R,4S,5R,6R)-N-(3-chloro-5-cyanophenyl)-5-hydroxy-6-(hydroxymethyl)-N-((3S,4R)-4-hydroxytetrahydrofuran-3-yl)-3-methoxy-4-(4-(3,4,5-trifluorophenyl)-1H-1,2,3-triazol-1-yl)tetrahydro-2H-pyran-2-carboxamide] | 69
CO[C@@H]1[C@@H](n2cc(-c3cc(F)c(F)c(F)c3)nn2)[C@@H](O)[C@@H](CO)O[C@H]1C(=O)N(c1cc(C)cc(Br)c1)[C@H]1COC[C@@H]1O [Example 8, (2R,3R,4S,5R,6R)-N-(3-bromo-5-methylphenyl)-5-hydroxy-6-(hydroxymethyl)-N-((3S,4R)-4-hydroxytetrahydrofuran-3-yl)-3-methoxy-4-(4-(3,4,5-trifluorophenyl)-1H-1,2,3-triazol-1-yl)tetrahydro-2H-pyran-2-carboxamide] | 77
COc1cc(C#N)cc(N(C(=O)[C@@H]2O[C@H](CO)[C@H](O)[C@H](n3cc(-c4cc(F)c(F)c(F)c4)nn3)[C@H]2OC)[C@H]2COC[C@@H]2O)c1 [Example 9, (2R,3R,4S,5R,6R)-N-(3-cyano-5-methoxyphenyl)-5-hydroxy-6-(hydroxymethyl)-N-((3S,4R)-4-hydroxytetrahydrofuran-3-yl)-3-methoxy-4-(4-(3,4,5-trifluorophenyl)-1H-1,2,3-triazol-1-yl)tetrahydro-2H-pyran-2-carboxamide] | 101
CO[C@@H]1[C@@H](n2cc(-c3cc(F)c(F)c(F)c3)nn2)[C@@H](O)[C@@H](CO)O[C@H]1C(=O)N(c1cc(C)cc(C#N)c1)[C@H]1COC[C@@H]1O [Example 10, (2R,3R,4S,5R,6R)-N-(3-cyano-5-methylphenyl)-5-hydroxy-6-(hydroxymethyl)-N-((3S,4R)-4-hydroxytetrahydrofuran-3-yl)-3-methoxy-4-(4-(3,4,5-trifluorophenyl)-1H-1,2,3-triazol-1-yl)tetrahydro-2H-pyran-2-carboxamide] | 136
CO[C@@H]1[C@@H](n2cc(-c3cc(F)c(F)c(F)c3)nn2)[C@@H](O)[C@@H](CO)O[C@H]1C(=O)N(c1cc(F)cc(C#N)c1)[C@H]1COC[C@@H]1O [Example 11, (2R,3R,4S,5R,6R)-N-(3-cyano-5-fluorophenyl)-5-hydroxy-6-(hydroxymethyl)-N-((3S,4R)-4-hydroxytetrahydrofuran-3-yl)-3-methoxy-4-(4-(3,4,5-trifluorophenyl)-1H-1,2,3-triazol-1-yl)tetrahydro-2H-pyran-2-carboxamide] | 124
CO[C@@H]1[C@@H](n2cc(-c3cc(F)c(C)c(F)c3)nn2)[C@@H](O)[C@@H](CO)O[C@H]1C(=O)N(c1cc(Br)cc(Br)c1)[C@H]1COC[C@@H]1O [Example 16, (2R,3R,4S,5R,6R)-N-(3,5-dibromophenyl)-4-(4-(3,5-difluoro-4-methylphenyl)-1H-1,2,3-triazol-1-yl)-5-hydroxy-6-(hydroxymethyl)-N-((3S,4R)-4-hydroxytetrahydrofuran-3-yl)-3-methoxytetrahydro-2H-pyran-2-carboxamide] | 61
CO[C@@H]1[C@@H](n2cc(-c3cc(F)c(C)c(F)c3)nn2)[C@@H](O)[C@@H](CO)O[C@H]1C(=O)N(c1cc(Br)cc(C#N)c1)[C@H]1COC[C@@H]1O [Example 17, (2R,3R,4S,5R,6R)-N-(3-bromo-5-cyanophenyl)-4-(4-(3,5-difluoro-4-methylphenyl)-1H-1,2,3-triazol-1-yl)-5-hydroxy-6-(hydroxymethyl)-N-((3S,4R)-4-hydroxytetrahydrofuran-3-yl)-3-methoxytetrahydro-2H-pyran-2-carboxamide] | 66
CO[C@@H]1[C@@H](n2cc(-c3cc(F)c(C)c(F)c3)nn2)[C@@H](O)[C@@H](CO)O[C@H]1C(=O)N(c1cc(C)cc(Br)c1)[C@H]1COC[C@@H]1O [Example 18, (2R,3R,4S,5R,6R)-N-(3-bromo-5-methylphenyl)-4-(4-(3,5-difluoro-4-methylphenyl)-1H-1,2,3-triazol-1-yl)-5-hydroxy-6-(hydroxymethyl)-N-((3S,4R)-4-hydroxytetrahydrofuran-3-yl)-3-methoxytetrahydro-2H-pyran-2-carboxamide] | 69

Now those with a lower IC50, led by results:

IC50 [nM] | SMILES
56 | CO[C@@H]1[C@@H](n2cc(-c3cc(F)c(F)c(F)c3)nn2)[C@@H](O)[C@@H](CO)O[C@H]1C(=O)N(c1cccc(I)c1)[C@H]1COC[C@@H]1O [Example 3, (2R,3R,4S,5R,6R)-5-hydroxy-6-(hydroxymethyl)-N-((3S,4R)-4-hydroxytetrahydrofuran-3-yl)-N-(3-iodophenyl)-3-methoxy-4-(4-(3,4,5-trifluorophenyl)-1H-1,2,3-triazol-1-yl)tetrahydro-2H-pyran-2-carboxamide]
53 | CO[C@@H]1[C@@H](n2cc(-c3cc(F)c(F)c(F)c3)nn2)[C@@H](O)[C@@H](CO)O[C@H]1C(=O)N(c1cc(Br)cc(Br)c1)[C@H]1COC[C@@H]1O [Example 6, (2R,3R,4S,5R,6R)-N-(3,5-dibromophenyl)-5-hydroxy-6-(hydroxymethyl)-N-((3S,4R)-4-hydroxytetrahydrofuran-3-yl)-3-methoxy-4-(4-(3,4,5-trifluorophenyl)-1H-1,2,3-triazol-1-yl)tetrahydro-2H-pyran-2-carboxamide]
47 | CO[C@@H]1[C@@H](n2cc(-c3ccc(Br)c(F)c3F)nn2)[C@@H](O)[C@@H](CO)O[C@H]1C(=O)N(c1cc(Cl)cc(Cl)c1)[C@H]1COC[C@@H]1O [Example 12, (2R,3R,4S,5R,6R)-4-(4-(4-bromo-2,3-difluorophenyl)-1H-1,2,3-triazol-1-yl)-N-(3,5-dichlorophenyl)-5-hydroxy-6-(hydroxymethyl)-N-((3S,4R)-4-hydroxytetrahydrofuran-3-yl)-3-methoxytetrahydro-2H-pyran-2-carboxamide]
15 | CO[C@@H]1[C@@H](n2cc(-c3ccc(Br)c(F)c3F)nn2)[C@@H](O)[C@@H](CO)O[C@H]1C(=O)N(c1cc(Br)cc(C#N)c1)[C@H]1COC[C@@H]1O [Example 13, (2R,3R,4S,5R,6R)-4-(4-(4-bromo-2,3-difluorophenyl)-1H-1,2,3-triazol-1-yl)-N-(3-bromo-5-cyanophenyl)-5-hydroxy-6-(hydroxymethyl)-N-((3S,4R)-4-hydroxytetrahydrofuran-3-yl)-3-methoxytetrahydro-2H-pyran-2-carboxamide]
46 | CO[C@@H]1[C@@H](n2cc(-c3ccc(Br)c(F)c3F)nn2)[C@@H](O)[C@@H](CO)O[C@H]1C(=O)N(c1cc(C)cc(Br)c1)[C@H]1COC[C@@H]1O [Example 14, (2R,3R,4S,5R,6R)-4-(4-(4-bromo-2,3-difluorophenyl)-1H-1,2,3-triazol-1-yl)-N-(3-bromo-5-methylphenyl)-5-hydroxy-6-(hydroxymethyl)-N-((3S,4R)-4-hydroxytetrahydrofuran-3-yl)-3-methoxytetrahydro-2H-pyran-2-carboxamide]
38 | CO[C@@H]1[C@@H](n2cc(-c3cc(F)c(C)c(F)c3)nn2)[C@@H](O)[C@@H](CO)O[C@H]1C(=O)N(c1cc(Cl)cc(Cl)c1)[C@H]1COC[C@@H]1O [Example 15, (2R,3R,4S,5R,6R)-N-(3,5-dichlorophenyl)-4-(4-(3,5-difluoro-4-methylphenyl)-1H-1,2,3-triazol-1-yl)-5-hydroxy-6-(hydroxymethyl)-N-((3S,4R)-4-hydroxytetrahydrofuran-3-yl)-3-methoxytetrahydro-2H-pyran-2-carboxamide]
40 | CO[C@@H]1[C@@H](n2cc(-c3ccc(C)c(F)c3F)nn2)[C@@H](O)[C@@H](CO)O[C@H]1C(=O)N(c1cc(Cl)cc(Cl)c1)[C@H]1COC[C@@H]1O [Example 19, (2R,3R,4S,5R,6R)-N-(3,5-dichlorophenyl)-4-(4-(2,3-difluoro-4-methylphenyl)-1H-1,2,3-triazol-1-yl)-5-hydroxy-6-(hydroxymethyl)-N-((3S,4R)-4-hydroxytetrahydrofuran-3-yl)-3-methoxytetrahydro-2H-pyran-2-carboxamide]
31 | CO[C@@H]1[C@@H](n2cc(-c3ccc(C)c(F)c3F)nn2)[C@@H](O)[C@@H](CO)O[C@H]1C(=O)N(c1cc(Br)cc(C#N)c1)[C@H]1COC[C@@H]1O [Example 20, (2R,3R,4S,5R,6R)-N-(3-bromo-5-cyanophenyl)-4-(4-(2,3-difluoro-4-methylphenyl)-1H-1,2,3-triazol-1-yl)-5-hydroxy-6-(hydroxymethyl)-N-((3S,4R)-4-hydroxytetrahydrofuran-3-yl)-3-methoxytetrahydro-2H-pyran-2-carboxamide]
